Measurements from patent US8168592B2 (Amgen Inc., priority 2005, dated 2012).
Read-outs that look alike come from different tables or passages of the source. Bridge positions count the residues as written; N and C are the ends. Square brackets hold non-standard residues; d marks the D form. Peptide text beside a SMILES is read from it. Oic = O=C(O)[C@@H]1C[C@@H]2CCCC[C@@H]2N1; 1Nal = N[C@@H](Cc1cccc2ccccc12)C(=O)O; 2Nal = N[C@@H](Cc1ccc2ccccc2c1)C(=O)O; hArg = N=C(N)NCCCC[C@H](N)C(=O)O; Tic = O=C(O)[C@@H]1Cc2ccccc2CN1; Cit = NC(=O)NCCC[C@H](N)C(=O)O

Molecular target: T1, CGRP1 receptor (Homo sapiens, UniProt O60894+Q16602)
T1 construct: SK-N-MC cells express CRLR and RAMP1, which form CGRP1 receptor; endogenous in cells; host or cells: SK-N-MC human neuroblastoma cells
Test: in vitro CGRP1 receptor mediated cAMP assay in SK-N-MC cells
Format: cell-based
In short: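 Human SK-N-MC neuroblastoma cells, which endogenously express CRLR/RAMP1, were plated two days before assay and preincubated in plasma-free medium for 15 minutes at room temperature. Cells were then lysed for 30 minutes at 37° C, and cAMP in the lysates was quantified by competitive cAMP-AP chemiluminescent ELISA.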

[1] = Table 2C, unconjugated peptide, read-out: Peptide IC50

T1 sequence (Q16602 23-461): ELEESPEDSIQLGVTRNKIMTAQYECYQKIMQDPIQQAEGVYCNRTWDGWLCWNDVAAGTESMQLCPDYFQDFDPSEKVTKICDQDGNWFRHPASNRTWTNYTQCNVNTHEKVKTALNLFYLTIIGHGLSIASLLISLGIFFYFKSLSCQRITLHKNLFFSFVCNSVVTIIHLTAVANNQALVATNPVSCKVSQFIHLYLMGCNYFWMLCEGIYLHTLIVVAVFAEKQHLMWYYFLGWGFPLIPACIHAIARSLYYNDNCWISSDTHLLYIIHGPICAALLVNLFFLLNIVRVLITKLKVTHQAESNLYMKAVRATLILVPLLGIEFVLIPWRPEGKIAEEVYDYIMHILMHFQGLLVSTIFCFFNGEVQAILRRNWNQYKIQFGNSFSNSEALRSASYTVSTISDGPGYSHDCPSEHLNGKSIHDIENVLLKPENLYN
T1 sequence (O60894 27-148): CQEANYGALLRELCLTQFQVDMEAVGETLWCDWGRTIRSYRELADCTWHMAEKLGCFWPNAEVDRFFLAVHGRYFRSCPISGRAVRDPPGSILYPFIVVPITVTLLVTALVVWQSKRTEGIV

How did the IC50 [1] turn out when `CC(=O)N[C@@H](Cc1c[nH]c2ccccc12)C(=O)N[C@H](C(=O)N[C@H](C(=O)N[C@@H](Cc1c[nH]cn1)C(=O)N[C@@H](CCCNC(N)=O)C(=O)N[C@@H](CC(C)C)C(=O)N[C@@H](C)C(=O)NCC(=O)N[C@H]1CCC(=O)NCCCC[C@@H](C(=O)NCC(=O)NCC(=O)N[C@H](C(=O)N[C@H](C(=O)N[C@@H](CCCCNC(=N)N)C(=O)N[C@@H](CCCCN)C(=O)N[C@@H](CC(N)=O)C(=O)N[C@@H](Cc2ccccc2)C(=O)N[C@H](C(=O)N2CCC[C@H]2C(=O)N[C@H](C(=O)N[C@@H](CC(=O)O)C(=O)N[C@H](C(=O)NCC(=O)N2[C@H](C(=O)N[C@@H](Cc3cccc4ccccc34)C(=O)N[C@@H](C)C(=O)N[C@@H](Cc3ccccc3)C(N)=O)C[C@@H]3CCCC[C@@H]32)C(C)C)[C@@H](C)O)C(C)C)C(C)C)C(C)C)NC(=O)[C@H](CCCCNC(=N)N)NC(=O)[C@H](CO)NC(=O)[C@H](CC(C)C)NC1=O)[C@@H](C)O)C(C)C` [compound 944] (Ac-WVTH[Cit]LAGELS[hArg]KGGVV[hArg]KNFVPTDVG[Oic][1Nal]AF-NH2; lactam 9-13) was run?
The IC50 was 0.85 nM.

`CC(=O)N[C@@H](Cc1c[nH]c2ccccc12)C(=O)N[C@H](C(=O)N[C@H](C(=O)N[C@@H](Cc1c[nH]cn1)C(=O)N[C@@H](CCC(N)=O)C(=O)N[C@@H](CC(C)C)C(=O)N[C@@H](C)C(=O)NCC(=O)N[C@@H](CC(C)C)C(=O)N[C@@H](CC(C)C)C(=O)N[C@@H](CO)C(=O)N[C@@H](CCC(N)=O)C(=O)N[C@@H](CO)C(=O)NCC(=O)NCC(=O)N[C@H](C(=O)N[C@H](C(=O)N[C@@H](CCCCNC(=N)N)C(=O)N[C@@H](CCCCN)C(=O)N[C@@H](CC(N)=O)C(=O)N[C@@H](Cc1ccccc1)C(=O)N[C@H](C(=O)N1CCC[C@H]1C(=O)N[C@H](C(=O)N[C@@H](CC(=O)O)C(=O)N[C@H](C(=O)NCC(=O)N1CCC[C@H]1C(=O)N[C@@H](Cc1ccccc1)C(=O)N[C@@H](C)C(=O)N[C@@H](Cc1ccccc1)C(N)=O)C(C)C)[C@@H](C)O)C(C)C)C(C)C)C(C)C)[C@@H](C)O)C(C)C` [compound 885] (Ac-WVTHQLAGLLSQSGGVV[hArg]KNFVPTDVGPFAF-NH2) was tested. Which IC50 [1] did it give?
The IC50 was 1.42 nM.

`CC(=O)N[C@@H](Cc1c[nH]c2ccccc12)C(=O)N[C@H](C(=O)N[C@H](C(=O)N[C@@H](Cc1c[nH]cn1)C(=O)N[C@@H](CCCNC(N)=O)C(=O)N[C@@H](CC(C)C)C(=O)N[C@@H](C)C(=O)NCC(=O)N[C@@H](CC(C)C)C(=O)N[C@@H](CC(C)C)C(=O)N[C@@H](CO)C(=O)N[C@@H](CCCNC(N)=O)C(=O)N[C@@H](CO)C(=O)NCC(=O)NCC(=O)N[C@H](C(=O)N[C@H](C(=O)N[C@@H](CCCNC(=N)N)C(=O)N[C@@H](CCCCN)C(=O)N[C@@H](CC(N)=O)C(=O)N[C@@H](Cc1ccccc1)C(=O)N[C@H](C(=O)N1CCC[C@H]1C(=O)N[C@H](C(=O)N[C@@H](CC(=O)O)C(=O)N[C@H](C(=O)NCC(=O)N1CCC[C@H]1C(=O)N1Cc2ccccc2C[C@H]1C(=O)N[C@@H](C)C(=O)N[C@@H](Cc1ccccc1)C(N)=O)C(C)C)[C@@H](C)O)C(C)C)C(C)C)C(C)C)[C@@H](C)O)C(C)C` [compound 146] (Ac-WVTH[Cit]LAGLLS[Cit]SGGVVRKNFVPTDVGP[Tic]AF-NH2) was tested. Which IC50 (Table 2A, read-out: IC50) did it give?
The IC50 was 10.1 nM.

For “SEQ ID NO:5 (Ac-WVTHRLAGLLSRSGGVVKNNFVPTDVGPFAF-NH2)”, which “improved potency relative to native CGRP(8-37) (SEQ ID NO:1)” value (cAMP assay) is on record?
Its value is “greater than 35 fold”.

For `CC(=O)N[C@@H](Cc1c[nH]c2ccccc12)C(=O)N[C@H](C(=O)N[C@H]1CCC(=O)NCCCC[C@@H](C(=O)NCC(=O)N[C@H]2CCC(=O)NCCCC[C@@H](C(=O)NCC(=O)NCC(=O)N[C@H](C(=O)N[C@H](C(=O)N[C@@H](CCCCNC(=N)N)C(=O)N[C@@H](CCCCN)C(=O)N[C@@H](CC(N)=O)C(=O)N[C@@H](Cc3ccccc3)C(=O)N[C@H](C(=O)N3CCC[C@H]3C(=O)N[C@H](C(=O)N[C@@H](CC(=O)O)C(=O)N[C@H](C(=O)NCC(=O)N3CCC[C@H]3C(=O)N[C@@H](Cc3ccccc3)C(=O)N[C@@H](C)C(=O)N[C@@H](Cc3ccccc3)C(N)=O)C(C)C)[C@@H](C)O)C(C)C)C(C)C)C(C)C)NC(=O)[C@H](CCCNC(N)=O)NC(=O)[C@H](CO)NC(=O)[C@H](CC(C)C)NC2=O)NC(=O)[C@H](CC(C)C)NC(=O)[C@H](CCCNC(=N)N)NC(=O)[C@H](Cc2c[nH]cn2)NC1=O)C(C)C` [compound 902], which IC50 [1] is on record?
The IC50 was 0.49 nM.

Which IC50 (Table 2A, read-out: IC50) does the source give for `CC(=O)N[C@@H](Cc1c[nH]c2ccccc12)C(=O)N[C@H](C(=O)N[C@H](C(=O)N[C@@H](Cc1c[nH]cn1)C(=O)N[C@@H](CCCNC(N)=O)C(=O)N[C@@H](CC(C)C)C(=O)N[C@@H](C)C(=O)NCC(=O)N[C@@H](CC(C)C)C(=O)N[C@@H](CC(C)C)C(=O)N[C@@H](CO)C(=O)N[C@@H](CCCNC(N)=O)C(=O)N[C@@H](CO)C(=O)NCC(=O)NCC(=O)N[C@H](C(=O)N[C@H](C(=O)N[C@@H](CCCCNC(=N)N)C(=O)N[C@@H](CCCCN)C(=O)N[C@@H](CC(N)=O)C(=O)N[C@@H](Cc1ccc2ccccc2c1)C(=O)N[C@H](C(=O)N1[C@H](C(=O)N[C@H](C(=O)N[C@@H](CC(=O)O)C(=O)N[C@H](C(=O)NCC(=O)N2[C@H](C(=O)N[C@@H](Cc3ccccc3)C(=O)N[C@@H](C)C(=O)N[C@@H](Cc3ccc4ccccc4c3)C(N)=O)C[C@@H]3CCCC[C@@H]32)C(C)C)[C@@H](C)O)C[C@@H]2CCCC[C@@H]21)C(C)C)C(C)C)C(C)C)[C@@H](C)O)C(C)C` [compound 139] (Ac-WVTH[Cit]LAGLLS[Cit]SGGVV[hArg]KN[2Nal]V[Oic]TDVG[Oic]FA[2Nal]-NH2) here?
Its IC50 is 3.57 nM.

Which “antagonist activity in cAMP assay, in words” value does the source give for “SEQ ID NO:8 (Ac-WVTHRLAGLLSRSGGVVRCNFVPTDVGPFAF-NH2)” here?
Its value is “somewhat less active”.

What about the “improvement in potency compared to SEQ ID NO:9” value (unPEGylated peptides) of the same molecule?
Its value is “more than 4 fold”.

`CC(=O)N[C@H](C(=O)N[C@H](C(=O)N[C@@H](Cc1c[nH]cn1)C(=O)N[C@@H](CCCNC(N)=O)C(=O)N[C@@H](CC(C)C)C(=O)N[C@@H](C)C(=O)NCC(=O)N[C@@H](CC(C)C)C(=O)N[C@@H](CC(C)C)C(=O)N[C@@H](CO)C(=O)N[C@@H](CCCNC(N)=O)C(=O)N[C@@H](CO)C(=O)NCC(=O)NCC(=O)N[C@H](C(=O)N[C@H](C(=O)N[C@@H](CCCCNC(=N)N)C(=O)N[C@@H](CCCCN)C(=O)N[C@@H](CC(N)=O)C(=O)N[C@@H](Cc1ccccc1)C(=O)N[C@H](C(=O)N1CCC[C@H]1C(=O)N[C@H](C(=O)N[C@@H](CC(=O)O)C(=O)N[C@H](C(=O)NCC(=O)N1[C@H](C(=O)N[C@@H](Cc2ccccc2)C(=O)N[C@@H](C)C(=O)N[C@@H](Cc2ccccc2)C(N)=O)C[C@@H]2CCCC[C@@H]21)C(C)C)[C@@H](C)O)C(C)C)C(C)C)C(C)C)[C@@H](C)O)C(C)C` [compound 660] (Ac-VTH[Cit]LAGLLS[Cit]SGGVV[hArg]KNFVPTDVG[Oic]FAF-NH2) was tested. Which IC50 (Table 2A, read-out: IC50) did it give?
The IC50 was 3 nM.

For `CC(=O)N[C@@H](Cc1c[nH]c2ccccc12)C(=O)N[C@H](C(=O)N[C@H](C(=O)N[C@@H](Cc1c[nH]cn1)C(=O)N[C@@H](CCCNC(N)=O)C(=O)N[C@@H](CC(C)C)C(=O)N[C@@H](C)C(=O)NCC(=O)N[C@@H](CC(C)C)C(=O)N[C@@H](CC(C)C)C(=O)N[C@@H](CO)C(=O)N[C@@H](CCCNC(N)=O)C(=O)N[C@@H](CO)C(=O)NCC(=O)NCC(=O)N[C@H](C(=O)N[C@H](C(=O)N[C@@H](CCCCNC(=N)N)C(=O)N[C@@H](CCCCN)C(=O)N[C@@H](CC(N)=O)C(=O)N[C@@H](Cc1ccccc1)C(=O)N[C@H](C(=O)N1CCC[C@H]1C(=O)N[C@H](C(=O)N[C@@H](CC(=O)O)C(=O)N[C@H](C(=O)NCC(=O)NC1(C(=O)N[C@@H](Cc2ccccc2)C(=O)N[C@@H](C)C(=O)N[C@@H](Cc2ccccc2)C(N)=O)Cc2ccccc2C1)C(C)C)[C@@H](C)O)C(C)C)C(C)C)C(C)C)[C@@H](C)O)C(C)C` [compound 669], which IC50 (Table 2A, read-out: IC50) is on record?
The IC50 was 33.2 to 262 nM.

`CC(=O)N[C@@H](Cc1c[nH]c2ccccc12)C(=O)N[C@H](C(=O)N[C@H]1CCC(=O)NCCCC[C@@H](C(=O)NCC(=O)N[C@@H](CC(C)C)C(=O)N[C@@H](CC(C)C)C(=O)N[C@@H](CO)C(=O)N[C@@H](CCCCNC(=N)N)C(=O)N[C@@H](CO)C(=O)NCC(=O)NCC(=O)N[C@H](C(=O)N[C@H](C(=O)N[C@@H](CCCCNC(=N)N)C(=O)N[C@@H](CCCCN)C(=O)N[C@@H](CC(N)=O)C(=O)N[C@@H](Cc2ccccc2)C(=O)N[C@H](C(=O)N2CCC[C@H]2C(=O)N[C@H](C(=O)N[C@@H](CC(=O)O)C(=O)N[C@H](C(=O)NCC(=O)N2CCC[C@H]2C(=O)N[C@@H](Cc2ccccc2)C(=O)N[C@@H](C)C(=O)N[C@@H](Cc2ccccc2)C(N)=O)C(C)C)[C@@H](C)O)C(C)C)C(C)C)C(C)C)NC(=O)[C@H](CC(C)C)NC(=O)[C@H](CCCNC(=N)N)NC(=O)[C@H](Cc2c[nH]cn2)NC1=O)C(C)C` [compound 905] (Ac-WVEHRLKGLLS[hArg]SGGVV[hArg]KNFVPTDVGPFAF-NH2; lactam 3-7) was tested. Which IC50 (Peptide IC50, Table 2C, unconjugated peptide) did it give?
Its IC50 is 1.7 nM.

For `CC(=O)N[C@@H](Cc1c[nH]c2ccccc12)C(=O)N[C@H](C(=O)N[C@H](C(=O)N[C@@H](Cc1c[nH]cn1)C(=O)N[C@@H](CCCNC(N)=O)C(=O)N[C@@H](CC(C)C)C(=O)N[C@@H](C)C(=O)NCC(=O)N[C@@H](CC(C)C)C(=O)N[C@@H](CC(C)C)C(=O)N[C@@H](CO)C(=O)N[C@@H](CCCNC(N)=O)C(=O)N[C@@H](CO)C(=O)NCC(=O)NCC(=O)N[C@H](C(=O)N[C@H](C(=O)N[C@@H](CCCCNC(=N)N)C(=O)N[C@@H](CCCCN)C(=O)N[C@@H](CC(N)=O)C(=O)N[C@@H](Cc1ccccc1)C(=O)N[C@H](C(=O)N1CCC[C@H]1C(=O)N[C@H](C(=O)N[C@@H](CC(=O)O)C(=O)N[C@H](C(=O)NCC(=O)N1CCC[C@H]1C(=O)N[C@@H](Cc1ccccc1)C(N)=O)C(C)C)[C@@H](C)O)C(C)C)C(C)C)C(C)C)[C@@H](C)O)C(C)C` [compound 655] (Ac-WVTH[Cit]LAGLLS[Cit]SGGVV[hArg]KNFVPTDVGPF-NH2), which IC50 (Table 2A, read-out: IC50) is on record?
The IC50 was > 1000 nM.
